Laboratory results published in patent US20120114636A1, “LOW MOLECULAR WEIGHT CYCLIN E (LMW-E) AS A BIOMARKER FOR PERSONALIZATION OF CANCER THERAPIES” (The Board of Regents of the University of Texas System, priority 2009, published 2012).
Several values for one entry are separate records, joined by “and”; a condition that tells them apart may be missing. Equal values may be shown once. Read-outs that look alike come from different tables or passages of the source.

How the values were obtained:
Type in all cases: cell-based, human
MCF-7/Ac1 cells [1] = assay: Cell number of adenovirus-infected cells (LacZ, cyclin EL, T1, T2); conditions: for inhibition at 1 µM: Homo sapiens, MCF7, 1 μM letrozole, read-out: inhibition of AD-induced growth
Text: (§1) LMW cyclin E, but not full-length cyclin E, overexpressing MCF-7/Ac1 cells partially override the letrozole inhibition of AD-induced S-phase entry and AD-induced CDK2 protein levels. Since overexpression of LMW cyclin E deregulates the G1 to S transition, the inventors interrogated the role of full-length and LMW cyclin E in letrozole response. To this end, the inventors examined the sensitivity of cyclin E overexpressing MCF-7/Ac1 cells to the growth inhibitory effect of letrozole using adenoviruses to overexpress full-length and LMW cyclin E (FIGS. 24A-24D). MCF-7/Ac1 cells were cultured in charcoal stripped serum media (CSSM) for 4 days before infecting them with 4000 m.o.i. of either LacZ, full-length cyclin E (cyclin EL) or LMW cyclin E (cyclin E-T1 and cyclin E-T2). Twenty-four hours later, cells were left either untreated, treated with 25 nM AD alone, or treated with 25 nM AD plus 1 μM letrozole for an additional 3 days (FIGS. 24A-24B). Following the treatment, cells were enumerated or subjected to flow cytometry analysis.
(§2) MCF-7/Ac1 cells were cultured in IMEM with 10% charcoal-stripped serum medium (CSSM) without phenol red and with 600 μg/ml of G418 for 4 days before plating. Triplicate wells of 6-well plates were then infected with the indicated adenoviruses (at 4000 m.o.i.) 24 hours before drug treatment. Cells were then left untreated (E2W, estrogen withdrawal) or treated with 25 nM AD (AD) or treated with 25 nM AD and 1 μM letrozole (AD+Let) and collected 3 days later for cell number. Cell growth is expressed as the percentage of the cells compared with the control cells (25 nM AD treated cells). […] MCF-7/Ac1 cells were treated as described in A, and collected for flow cytometry analysis. Histograms represent the S-phase fraction expressed as the percentage of the cells in S-phase compared with the control cells (25 nM AD treated cells). […] The same cell lysates as in A and B were subjected to western blot analysis (50 μg of protein) with cyclin E and CDK2 antibodies. The bar graph represents the densitometric values of the phosphorylated CDK2 bands. […] Left, MCF-7/Ac1 cells were cultured in IMEM with 10% charcoal-stripped serum medium (CSSM) without phenol red and with 600 μg/ml of G418 for 4 days before plating. Cells were then infected with the indicated adenoviruses (at 4000 m.o.i.) 24 hours before drug treatment. Cells were then treated with 25 nM AD and 1 μM letrozole and collected 3 days later for cell number. […] Columns, mean of two to three experiments, each in triplicates; bars, S.D.
To directly address this question, MCF-7/Ac1 cells were cultured in charcoal stripped serum media (CSSM) for 4 days before adding medium with no virus or with 4000 m.o.i. of either LacZ, or LMW cyclin E (cyclin E-T1) adenoviruses. 24 hours later, cells were left untreated, treated with 25 nM AD alone, or treated with 25 nM AD plus 1 μM letrozole for 3 days (FIG. 24D). The AD-induced growth of MCF-7/Ac1 cells was inhibited by letrozole by 51% in uninfected cells and by 58% in LacZ infected cells while the growth of cyclin E-T1 infected cells was inhibited by only 20% (FIG. 24D, left).

MCF-7/Ac1 cells [2] = assay: Sequential AD/letrozole then roscovitine treatment: cell number and CDK2 western blot; conditions: LMW cyclin E overexpressing cells
Procedure: Medium alone or medium plus DMSO were used as controls. A schematic of the treatment strategy is depicted in FIG. 25A. At the conclusion of the treatment, cells were enumerated and subjected to western blot analysis with CDK2 (total) and phospho-CDK2 antibodies.
Cells were then infected with the indicated adenoviruses (at 4000 m.o.i.) 24 hours before drug treatment.

MCF-7/Ac1 cells [3] = assay: S-phase fraction by flow cytometry of adenovirus-infected cells; conditions: 1 μM letrozole with 25 nM AD
Procedure: Flow cytometry analysis. Cells were pelleted and resuspended in 1.5 ml of PBS, then fixed in 3.5 ml of 95% ethanol overnight at −20° C. After being washed, the pellets were resuspended in a solution of PBS containing 10 μg/ml propidium iodide, 20 μg/ml RNase A, 0.5% Tween 20, and 0.5% BSA and incubated at 37° C. for 30 min. The profiles of cells in the G0-G1, S, and G2-M phases of the cell cycle were analyzed at the M. D. Anderson Cancer Center Cytometry Core Facility on a FACS Caliber machine equipped with Cellquest or ModFit software.
as §1, §2

N#Cc1ccc(C(c2ccc(C#N)cc2)n2cncn2)cc1 [letrozole]
inhibition of AD-induced growth (MCF-7/Ac1 cells [1]; 1 μM letrozole, cyclin EL, T1, and T2 infected cells, FIG. 24A): no significant growth inhibition | inhibition at 1 µM (MCF-7/Ac1 cells [1]; LacZ infected cells, FIG. 24A): 56.1% | inhibition at 1 µM (MCF-7/Ac1 cells [1]; LacZ infected cells, FIG. 24D): 58% | inhibition at 1 µM (MCF-7/Ac1 cells [1]; cyclin E-T1 infected cells, FIG. 24D): 20% | inhibition at 1 µM (MCF-7/Ac1 cells [1]; uninfected cells, FIG. 24A): 40.8% | inhibition at 1 µM (MCF-7/Ac1 cells [1]; uninfected cells, FIG. 24D): 51% | increase in AD-induced proliferation not prevented by letrozole (MCF-7/Ac1 cells [2]; AD plus 1 μM letrozole): 2.5 fold and 2.8 fold | phosphorylated/unphosphorylated CDK2 ratio (MCF-7/Ac1 cells [2]; AD plus letrozole): 134-234% | decrease in number of cells in S phase (MCF-7/Ac1 cells [3]; LacZ-infected cells): 37% | decrease in number of cells in S phase (MCF-7/Ac1 cells [3]; cyclin E-T1-infected cells): 16% | decrease in number of cells in S phase (MCF-7/Ac1 cells [3]; cyclin E-T2-infected cells): 21% | decrease in number of cells in S phase (MCF-7/Ac1 cells [3]; cyclin EL-infected cells): 42% | decrease in number of cells in S phase (MCF-7/Ac1 cells [3]; uninfected cells): 62%
